“Also recorded” adds a separate entry of the source.
What was measured:
[1] = as supported by animal studies; cited from earlier work
TRPV1 = TRPV1 (Homo sapiens, UniProt Q8NER1); settings: cited from earlier work
ovariectomized rats [2] = experiment: internal warming-induced cessation of warm sucrose intake test (sucrose intake cessation test); type: in vivo, rat; settings: Experiment 4, SB366791 10 mg/kg by oral gavage 20 min prior to heat exposure (32.5° C., 10 min), vs OVX Vehicle+Vehicle
Experimental: Experiments were performed in adult female Wistar rats (Envigo) weighting 240-280 g at the day of the first surgery (Day 0). Rats were housed three per cage in standard “show boxes”. The room was maintained on a 12:12 h light-dark cycle (lights-on at 6 AM) at 24±2° C. All protocols were approved by the Institutional Animal Care and Use Committee. On Day 0, each rat was subjected to a bilateral ovariectomy or sham surgery, either with or without simultaneous implantation of a miniature data logger into the peritoneal cavity for body temperature measurement. On Day 7, the ovariectomized rats were implanted subcutaneously with a capsule containing either estradiol or vehicle, and the sham-operated rats were implanted with a capsule containing vehicle. On Days 6-15, the rats were habituated to experimental setups and procedures. […] Each burette was fitted with a stainless steel spout and filled with a 0.3 M sucrose solution at either 27 or 40° C., and sucrose solution consumption was recorded for 15 min. […] All data arc expressed as mean±SE. The preferred ambient temperature and sucrose intake data analyzed by a two-way repeated-measurements ANOVA, followed by the Fisher or Newman-Keuls multiple comparisons test, as appropriate. The uterus mass data were analyzed by a one-way ANOVA followed by the Fisher test. […]

ovariectomized rats [3] = experiment: ambient warming-induced cold-seeking test in a thermogradient apparatus; type: in vivo, rat; settings: vs OVX Vehicle+Vehicle
Experimental: Experiments were performed in adult female Wistar rats (Envigo) weighting 240-280 g at the day of the first surgery (Day 0). Rats were housed three per cage in standard “show boxes”. The room was maintained on a 12:12 h light-dark cycle (lights-on at 6 AM) at 24±2° C. All protocols were approved by the Institutional Animal Care and Use Committee.
On Day 0, each rat was subjected to a bilateral ovariectomy or sham surgery, either with or without simultaneous implantation of a miniature data logger into the peritoneal cavity for body temperature measurement. On Day 7, the ovariectomized rats were implanted subcutaneously with a capsule containing either estradiol or vehicle, and the sham-operated rats were implanted with a capsule containing vehicle. On Days 6-15, the rats were habituated to experimental setups and procedures. The rats were taken into experiments between Days 16 and 20 (Experiments 1-3) or on Days 13 and 20 (Experiment 4); each rat was used in two experiments. Thermal discomfort was studied in one of two tests: the ambient warming-induced cold-seeking test in a thermogradient apparatus (cold-seeking test; Experiments 1-3) or the internal warming-induced cessation of warm sucrose intake test (sucrose intake cessation test; Experiment 4). Some ovariectomized rats were treated with a TRPV1. antagonist (capsazepine, Al 165442, or SB366791) or vehicle prior to a test. After experiments (Day 21), each rat used in Experiments 1-3 was euthanized, and the uterus was removed and weighed to confirm the completeness of the ovariectomy and the effectiveness of the estradiol replacement procedure.
The goal of Experiment 1 was to determine whether ovariectomy facilitates the cold-seeking behavior after heat exposure, and whether this facilitation (if it occurs) is estradiol-dependent. […]
Cold-seeking test. […] The preferred ambient temperature was recorded for 10 min. […]

ovariectomized rats [4] = experiment: uterus mass after ovariectomy and estradiol replacement; type: in vivo, rat; settings: Experiment 1; ovariectomized rats with estradiol replacement; mean±SE; Day 21
Excerpt: On Day 0, each rat was subjected to a bilateral ovariectomy or sham surgery, either with or without simultaneous implantation of a miniature data logger into the peritoneal cavity for body temperature measurement. On Day 7, the ovariectomized rats were implanted subcutaneously with a capsule containing either estradiol or vehicle, and the sham-operated rats were implanted with a capsule containing vehicle. On Days 6-15, the rats were habituated to experimental setups and procedures. The rats were taken into experiments between Days 16 and 20 (Experiments 1-3) or on Days 13 and 20 (Experiment 4); each rat was used in two experiments. Thermal discomfort was studied in one of two tests: the ambient warming-induced cold-seeking test in a thermogradient apparatus (cold-seeking test; Experiments 1-3) or the internal warming-induced cessation of warm sucrose intake test (sucrose intake cessation test; Experiment 4). Some ovariectomized rats were treated with a TRPV1. antagonist (capsazepine, Al 165442, or SB366791) or vehicle prior to a test. […] All data arc expressed as mean±SE. The preferred ambient temperature and sucrose intake data analyzed by a two-way repeated-measurements ANOVA, followed by the Fisher or Newman-Keuls multiple comparisons test, as appropriate. The uterus mass data were analyzed by a one-way ANOVA followed by the Fisher test. […]

Chain of TRPV1 (Q8NER1 whole entry, species assumed): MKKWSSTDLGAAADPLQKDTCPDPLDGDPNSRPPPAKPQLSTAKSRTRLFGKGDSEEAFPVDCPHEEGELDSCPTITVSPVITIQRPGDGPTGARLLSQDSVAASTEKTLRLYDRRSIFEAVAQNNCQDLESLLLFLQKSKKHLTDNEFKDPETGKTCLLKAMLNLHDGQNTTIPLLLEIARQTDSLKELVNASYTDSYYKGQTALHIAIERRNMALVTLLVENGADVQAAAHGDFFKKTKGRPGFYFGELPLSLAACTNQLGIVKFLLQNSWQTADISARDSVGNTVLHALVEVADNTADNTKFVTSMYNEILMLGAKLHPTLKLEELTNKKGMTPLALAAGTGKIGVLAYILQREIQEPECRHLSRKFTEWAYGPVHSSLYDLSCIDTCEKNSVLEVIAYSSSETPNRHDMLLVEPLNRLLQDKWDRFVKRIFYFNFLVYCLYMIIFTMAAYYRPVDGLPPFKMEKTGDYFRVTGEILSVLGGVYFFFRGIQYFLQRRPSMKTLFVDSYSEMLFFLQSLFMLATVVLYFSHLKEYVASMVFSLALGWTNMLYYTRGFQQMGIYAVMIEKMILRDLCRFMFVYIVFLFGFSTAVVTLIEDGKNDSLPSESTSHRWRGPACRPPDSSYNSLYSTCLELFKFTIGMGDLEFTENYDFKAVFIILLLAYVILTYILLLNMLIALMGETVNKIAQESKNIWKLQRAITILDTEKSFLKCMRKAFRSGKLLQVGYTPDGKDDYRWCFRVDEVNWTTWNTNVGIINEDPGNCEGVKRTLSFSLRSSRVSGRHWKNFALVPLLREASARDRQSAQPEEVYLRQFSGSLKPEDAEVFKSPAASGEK

FC(F)(F)c1ccc(-c2cc(Nc3ccc4ncsc4c3)ncn2)c(NCC2CCCCC2)c1 [AMG7905]
effect on body temperature [1]: cause hypothermia
effect on activation of TRPV1 by protons (TRPV1): potentiate the activation of TRPV1 by protons

COc1cccc(NC(=O)/C=C/c2ccc(Cl)cc2)c1 [SB366791]
cumulative intake of warm (40° C.) sucrose solution (avoidance of internal warming) (ovariectomized rats [2]): attenuated; also recorded: treat this thermal discomfort; also recorded: significant difference

Cc1cc2c(NC(=O)N[C@@H]3CC(CF)(CF)Oc4cc(Cl)ccc43)cccc2cn1 [A1165442]
heat exposure-induced cold-seeking behavior (preferred ambient temperature) (ovariectomized rats [3]; Experiment 3, A1165442 100 mg/kg by oral gavage prior to 10-min mild heat exposure (31° C.), 100 mg/kg): strongly attenuated; also recorded: treat this thermal discomfort; also recorded: significant difference

Oc1cc2c(cc1O)CN(C(=S)NCCc1ccc(Cl)cc1)CCC2 [capsazepine]
heat exposure-induced cold-seeking behavior (preferred ambient temperature) (ovariectomized rats [3]; Experiment 2, capsazepine 40 mg/kg by oral gavage 30 min prior to 10-min mild heat exposure (31° C.)): strongly attenuated; also recorded: treat this thermal discomfort
heat exposure-induced cold-seeking behavior (preferred ambient temperature) (ovariectomized rats [3]; Experiment 2, capsazepine 40 mg/kg by oral gavage 30 min prior to 10-min mild heat exposure (31° C.), listed as Capsazepine): significant difference

C[C@]12CC[C@@H]3c4ccc(O)cc4CC[C@H]3[C@@H]1CC[C@@H]2O [Estradiol, estradiol]
uterus mass (ovariectomized rats [4]): 0.42 ± 0.02 g
